Where two headings read alike, the source gives them in different places.
Legend:
Experiment in all cases: biochemical
Type in all cases: binding
[1] = molecular target: panel of 468 diverse kinases (Homo sapiens, UniProt Q9BYT3); conditions: STK33; 1000 nM; read-out: Percent Control
[2] = molecular target: panel of 468 diverse kinases (Homo sapiens, UniProt O15146); conditions: MUSK; 1000 nM; read-out: Percent Control
[3] = molecular target: panel of 468 diverse kinases (Homo sapiens, UniProt Q8NI60); conditions: ADCK3; 1000 nM; read-out: Percent Control
[4] = molecular target: panel of 468 diverse kinases (Homo sapiens, UniProt Q9H2K8); conditions: TAOK3; 1000 nM; read-out: Percent Control
[5] = molecular target: panel of 468 diverse kinases (Homo sapiens, UniProt P08581, Y1235D); conditions: MET(Y1235D); 1000 nM; read-out: Percent Control
[6] = molecular target: panel of 468 diverse kinases (Homo sapiens, UniProt P16591); conditions: FER; 1000 nM; read-out: Percent Control
[7] = molecular target: panel of 468 diverse kinases (Homo sapiens, UniProt Q9UHD2); conditions: TBK1; 1000 nM; read-out: Percent Control
[8] = molecular target: panel of 468 diverse kinases (Homo sapiens, UniProt P36888, R834Q); conditions: FLT3(R834Q); 1000 nM; read-out: Percent Control
[9] = molecular target: panel of 468 diverse kinases (Homo sapiens, UniProt O14976); conditions: GAK; 1000 nM; read-out: Percent Control
[10] = molecular target: panel of 468 diverse kinases (Homo sapiens, UniProt Q92630); conditions: DYRK2; 1000 nM; read-out: Percent Control
[11] = molecular target: panel of 468 diverse kinases (Homo sapiens, UniProt Q56UN5); conditions: YSK4; 1000 nM; read-out: Percent Control
[12] = molecular target: panel of 468 diverse kinases (Homo sapiens, UniProt O14578); conditions: CIT; 1000 nM; read-out: Percent Control
[13] = molecular target: panel of 468 diverse kinases (Homo sapiens, UniProt Q9UK32); conditions: 1000 nM, read-out: Percent Control
[14] = molecular target: panel of 468 diverse kinases (Homo sapiens, UniProt Q16659); conditions: ERK3; 1000 nM; read-out: Percent Control
[15] = molecular target: panel of 468 diverse kinases (Homo sapiens, UniProt Q8IU85); conditions: CAMK1D; 1000 nM; read-out: Percent Control
[16] = molecular target: panel of 468 diverse kinases (Homo sapiens, UniProt O14965); conditions: AURKA; 1000 nM; read-out: Percent Control
[17] = molecular target: panel of 468 diverse kinases (Homo sapiens, UniProt Q00537); conditions: PCTK2; 1000 nM; read-out: Percent Control
[18] = molecular target: panel of 468 diverse kinases (Homo sapiens, UniProt P78356); conditions: PIP5K2B; 1000 nM; read-out: Percent Control
[19] = molecular target: panel of 468 diverse kinases (Homo sapiens, UniProt P57078); conditions: RIPK4; 1000 nM; read-out: Percent Control
[20] = molecular target: panel of 468 diverse kinases (Homo sapiens, UniProt Q13043); conditions: MST1; 1000 nM; read-out: Percent Control
[21] = molecular target: panel of 468 diverse kinases (Homo sapiens, UniProt P42336, H1047Y); conditions: PIK3CA(H1047Y); 1000 nM; read-out: Percent Control
[22] = molecular target: panel of 468 diverse kinases (Homo sapiens, UniProt Q9UBE8); conditions: NLK; 1000 nM; read-out: Percent Control
[23] = molecular target: panel of 468 diverse kinases (Homo sapiens, UniProt Q9HAZ1); conditions: CLK4; 1000 nM; read-out: Percent Control
[24] = molecular target: panel of 468 diverse kinases (Homo sapiens, UniProt P10721, A829P); conditions: KIT(A829P); 1000 nM; read-out: Percent Control
[25] = molecular target: panel of 468 diverse kinases (Homo sapiens, UniProt P14616); conditions: INSRR; 1000 nM; read-out: Percent Control
[26] = molecular target: panel of 468 diverse kinases (Homo sapiens, UniProt Q9Y4K4); conditions: MAP4K5; 1000 nM; read-out: Percent Control
[27] = molecular target: panel of 468 diverse kinases (Homo sapiens, UniProt Q16513); conditions: PKN2; 1000 nM; read-out: Percent Control
[28] = molecular target: panel of 468 diverse kinases (Homo sapiens, UniProt P42338); conditions: PIK3CB; 1000 nM; read-out: Percent Control
[29] = molecular target: panel of 468 diverse kinases (Homo sapiens, UniProt P23443); conditions: S6K1; 1000 nM; read-out: Percent Control
[30] = molecular target: panel of 468 diverse kinases (Homo sapiens, UniProt O95382); conditions: ASK2; 1000 nM; read-out: Percent Control
[31] = molecular target: panel of 468 diverse kinases (Homo sapiens, UniProt Q9Y2K2); conditions: QSK; 1000 nM; read-out: Percent Control

Chain of panel of 468 diverse kinases (Homo sapiens, UniProt P08581, Y1235D) (P08581 25-1390 Y1235D limits assumed): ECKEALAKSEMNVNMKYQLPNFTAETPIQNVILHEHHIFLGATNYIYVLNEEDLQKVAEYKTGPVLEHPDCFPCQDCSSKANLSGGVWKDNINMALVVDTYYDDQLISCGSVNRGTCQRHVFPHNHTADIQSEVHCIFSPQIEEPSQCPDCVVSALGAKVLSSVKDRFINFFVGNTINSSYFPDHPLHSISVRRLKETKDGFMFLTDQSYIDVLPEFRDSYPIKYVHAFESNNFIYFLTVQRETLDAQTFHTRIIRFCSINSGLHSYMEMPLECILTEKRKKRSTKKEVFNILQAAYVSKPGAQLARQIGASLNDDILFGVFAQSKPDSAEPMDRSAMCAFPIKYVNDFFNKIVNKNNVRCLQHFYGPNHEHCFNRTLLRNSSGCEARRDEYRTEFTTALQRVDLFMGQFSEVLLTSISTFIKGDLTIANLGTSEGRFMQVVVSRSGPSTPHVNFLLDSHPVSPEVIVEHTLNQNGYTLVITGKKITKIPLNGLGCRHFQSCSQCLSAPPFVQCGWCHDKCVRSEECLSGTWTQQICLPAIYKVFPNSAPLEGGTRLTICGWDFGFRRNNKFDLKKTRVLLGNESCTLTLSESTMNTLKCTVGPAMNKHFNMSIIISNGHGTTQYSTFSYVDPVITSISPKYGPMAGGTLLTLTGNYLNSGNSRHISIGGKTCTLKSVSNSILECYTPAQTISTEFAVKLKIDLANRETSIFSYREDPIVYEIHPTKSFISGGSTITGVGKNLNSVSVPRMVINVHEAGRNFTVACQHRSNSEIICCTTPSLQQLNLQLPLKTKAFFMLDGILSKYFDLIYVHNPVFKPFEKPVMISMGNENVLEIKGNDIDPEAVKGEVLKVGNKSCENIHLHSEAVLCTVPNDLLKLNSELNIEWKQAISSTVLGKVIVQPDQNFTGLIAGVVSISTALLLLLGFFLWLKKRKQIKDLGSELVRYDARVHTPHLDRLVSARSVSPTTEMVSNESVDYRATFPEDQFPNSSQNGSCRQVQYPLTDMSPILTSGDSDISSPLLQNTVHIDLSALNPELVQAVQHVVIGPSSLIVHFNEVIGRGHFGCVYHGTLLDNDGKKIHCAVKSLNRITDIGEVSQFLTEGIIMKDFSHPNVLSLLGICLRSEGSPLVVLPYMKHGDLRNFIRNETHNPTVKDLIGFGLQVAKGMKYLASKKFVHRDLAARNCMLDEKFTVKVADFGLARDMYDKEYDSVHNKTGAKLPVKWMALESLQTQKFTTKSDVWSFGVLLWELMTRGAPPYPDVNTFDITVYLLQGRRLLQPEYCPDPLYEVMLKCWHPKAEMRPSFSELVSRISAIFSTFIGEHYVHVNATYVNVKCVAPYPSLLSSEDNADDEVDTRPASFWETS
Chain of panel of 468 diverse kinases (Homo sapiens, UniProt P78356) (P78356 2-416 limits assumed): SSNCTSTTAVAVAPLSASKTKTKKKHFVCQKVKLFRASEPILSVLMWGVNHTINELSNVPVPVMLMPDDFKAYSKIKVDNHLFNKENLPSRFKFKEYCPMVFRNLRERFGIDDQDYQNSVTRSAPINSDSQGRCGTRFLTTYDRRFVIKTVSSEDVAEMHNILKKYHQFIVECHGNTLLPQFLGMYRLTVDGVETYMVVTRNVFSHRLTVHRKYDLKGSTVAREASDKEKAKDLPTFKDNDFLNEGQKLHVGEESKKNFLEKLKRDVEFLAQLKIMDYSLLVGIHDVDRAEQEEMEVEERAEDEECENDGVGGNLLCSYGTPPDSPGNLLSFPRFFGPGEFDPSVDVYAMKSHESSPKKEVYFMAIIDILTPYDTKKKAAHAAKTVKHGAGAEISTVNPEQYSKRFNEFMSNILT
Chain of panel of 468 diverse kinases (Homo sapiens, UniProt P10721, A829P) (P10721 26-976 A829P limits assumed): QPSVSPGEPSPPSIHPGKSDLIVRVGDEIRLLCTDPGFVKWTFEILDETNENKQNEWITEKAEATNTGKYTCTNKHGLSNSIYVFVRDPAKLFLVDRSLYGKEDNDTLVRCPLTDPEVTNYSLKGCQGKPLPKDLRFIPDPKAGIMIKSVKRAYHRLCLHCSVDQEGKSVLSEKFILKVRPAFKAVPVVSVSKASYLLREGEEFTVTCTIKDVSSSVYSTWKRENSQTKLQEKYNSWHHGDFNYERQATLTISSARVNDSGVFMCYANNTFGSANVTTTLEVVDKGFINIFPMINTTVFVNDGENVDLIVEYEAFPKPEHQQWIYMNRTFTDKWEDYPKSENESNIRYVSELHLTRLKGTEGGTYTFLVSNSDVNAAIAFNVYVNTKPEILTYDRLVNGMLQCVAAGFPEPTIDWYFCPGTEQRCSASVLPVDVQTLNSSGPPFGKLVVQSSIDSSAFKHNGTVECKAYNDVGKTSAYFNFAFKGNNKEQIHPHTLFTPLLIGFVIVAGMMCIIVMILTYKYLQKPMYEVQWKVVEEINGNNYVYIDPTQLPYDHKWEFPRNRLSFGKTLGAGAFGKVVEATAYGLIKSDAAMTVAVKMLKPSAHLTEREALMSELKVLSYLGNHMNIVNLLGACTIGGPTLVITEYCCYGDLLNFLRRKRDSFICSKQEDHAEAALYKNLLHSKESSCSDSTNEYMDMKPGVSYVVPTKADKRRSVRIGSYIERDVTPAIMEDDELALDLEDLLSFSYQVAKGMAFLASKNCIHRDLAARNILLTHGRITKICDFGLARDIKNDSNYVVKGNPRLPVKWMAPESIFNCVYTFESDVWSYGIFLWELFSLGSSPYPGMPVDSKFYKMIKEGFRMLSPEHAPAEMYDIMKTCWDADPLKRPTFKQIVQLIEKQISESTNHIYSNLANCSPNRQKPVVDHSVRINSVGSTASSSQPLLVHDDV
Chain of panel of 468 diverse kinases (Homo sapiens, UniProt O14976) (O14976 2-1311 limits assumed): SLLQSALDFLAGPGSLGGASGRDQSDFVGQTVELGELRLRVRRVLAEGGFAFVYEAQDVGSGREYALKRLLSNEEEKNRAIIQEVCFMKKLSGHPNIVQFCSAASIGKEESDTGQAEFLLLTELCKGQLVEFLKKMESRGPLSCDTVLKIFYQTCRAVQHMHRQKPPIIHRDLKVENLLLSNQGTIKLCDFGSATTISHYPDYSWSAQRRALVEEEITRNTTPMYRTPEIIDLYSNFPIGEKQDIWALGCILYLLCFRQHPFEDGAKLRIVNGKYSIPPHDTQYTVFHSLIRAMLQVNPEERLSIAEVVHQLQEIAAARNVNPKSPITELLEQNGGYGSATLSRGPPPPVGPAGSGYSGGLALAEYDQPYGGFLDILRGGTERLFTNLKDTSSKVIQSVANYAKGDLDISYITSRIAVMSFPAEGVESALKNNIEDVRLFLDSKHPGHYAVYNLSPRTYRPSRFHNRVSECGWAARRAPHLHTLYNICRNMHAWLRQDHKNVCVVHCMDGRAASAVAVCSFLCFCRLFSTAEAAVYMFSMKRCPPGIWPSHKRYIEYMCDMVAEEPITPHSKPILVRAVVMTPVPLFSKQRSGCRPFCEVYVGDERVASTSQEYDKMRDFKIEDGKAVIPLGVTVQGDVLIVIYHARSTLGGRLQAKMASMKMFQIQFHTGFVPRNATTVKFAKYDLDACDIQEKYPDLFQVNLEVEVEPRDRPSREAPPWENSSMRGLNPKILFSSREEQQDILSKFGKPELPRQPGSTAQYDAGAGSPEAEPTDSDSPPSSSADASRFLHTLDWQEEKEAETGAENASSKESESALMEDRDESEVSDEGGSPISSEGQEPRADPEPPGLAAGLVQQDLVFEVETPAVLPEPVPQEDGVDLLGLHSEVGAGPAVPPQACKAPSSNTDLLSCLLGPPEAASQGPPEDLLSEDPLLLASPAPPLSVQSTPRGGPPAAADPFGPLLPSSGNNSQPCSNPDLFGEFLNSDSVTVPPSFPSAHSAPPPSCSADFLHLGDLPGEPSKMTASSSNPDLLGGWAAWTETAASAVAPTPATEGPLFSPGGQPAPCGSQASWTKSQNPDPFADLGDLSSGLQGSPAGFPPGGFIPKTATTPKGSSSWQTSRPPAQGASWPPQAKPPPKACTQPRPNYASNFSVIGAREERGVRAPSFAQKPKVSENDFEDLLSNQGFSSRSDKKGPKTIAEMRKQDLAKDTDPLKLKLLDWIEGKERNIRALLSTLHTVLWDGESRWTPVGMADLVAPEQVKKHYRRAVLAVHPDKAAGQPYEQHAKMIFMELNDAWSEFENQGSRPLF
Chain of panel of 468 diverse kinases (Homo sapiens, UniProt O15146) (O15146 24-869 limits assumed): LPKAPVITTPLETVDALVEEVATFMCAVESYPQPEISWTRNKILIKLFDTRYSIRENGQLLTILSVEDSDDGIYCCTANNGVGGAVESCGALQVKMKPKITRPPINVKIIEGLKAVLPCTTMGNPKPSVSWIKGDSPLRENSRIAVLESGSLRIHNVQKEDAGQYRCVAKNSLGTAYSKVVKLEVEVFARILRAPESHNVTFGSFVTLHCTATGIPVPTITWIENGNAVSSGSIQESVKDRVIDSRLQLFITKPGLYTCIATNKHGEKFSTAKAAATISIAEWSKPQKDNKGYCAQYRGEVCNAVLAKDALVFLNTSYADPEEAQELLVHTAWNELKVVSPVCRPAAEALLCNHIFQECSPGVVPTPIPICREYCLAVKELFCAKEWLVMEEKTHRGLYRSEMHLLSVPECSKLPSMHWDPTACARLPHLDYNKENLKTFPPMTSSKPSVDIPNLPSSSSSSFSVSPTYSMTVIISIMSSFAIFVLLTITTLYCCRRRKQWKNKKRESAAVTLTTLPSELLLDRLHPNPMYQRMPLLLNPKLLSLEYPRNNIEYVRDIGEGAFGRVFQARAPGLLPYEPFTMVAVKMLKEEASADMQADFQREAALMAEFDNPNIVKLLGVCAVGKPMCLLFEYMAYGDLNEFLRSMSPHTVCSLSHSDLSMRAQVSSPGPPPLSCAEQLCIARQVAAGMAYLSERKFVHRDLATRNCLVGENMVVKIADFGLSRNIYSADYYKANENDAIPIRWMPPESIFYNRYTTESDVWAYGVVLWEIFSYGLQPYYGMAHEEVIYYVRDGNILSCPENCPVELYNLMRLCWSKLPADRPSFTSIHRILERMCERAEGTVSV

## COc1cc2nc(NC3CC3)nc(NC3CCN(C(C)C)CC3)c2cc1OC [Formula IV]
[1]
  remaining activity at 1 µM: 92%
[2]
  remaining activity at 1 µM: 83%
[3]
  remaining activity at 1 µM: 100%
[4]
  remaining activity at 1 µM: 54%
[5]
  remaining activity at 1 µM: 93%
[6]
  remaining activity at 1 µM: 90%
[7]
  remaining activity at 1 µM: 98%
[8]
  remaining activity at 1 µM: 40%
[9]
  remaining activity at 1 µM: 92%
[10]
  remaining activity at 1 µM: 84%
[11]
  remaining activity at 1 µM: 78%
[12]
  remaining activity at 1 µM: 100%
[13]; RSK4(Kin.Dom.1-N-terminal)
  remaining activity at 1 µM: 92%
[13]; RSK4(Kin.Dom.2-C-terminal)
  remaining activity at 1 µM: 82%
[14]
  remaining activity at 1 µM: 90%
[15]
  remaining activity at 1 µM: 100%
[16]
  remaining activity at 1 µM: 56%
[17]
  remaining activity at 1 µM: 94%
[18]
  remaining activity at 1 µM: 100%
[19]
  remaining activity at 1 µM: 99%
[20]
  remaining activity at 1 µM: 84%
[21]
  remaining activity at 1 µM: 91%
[22]
  remaining activity at 1 µM: 100%
[23]
  remaining activity at 1 µM: 69%
[24]
  remaining activity at 1 µM: 78%
[25]
  remaining activity at 1 µM: 86%
[26]
  remaining activity at 1 µM: 100%
[27]
  remaining activity at 1 µM: 98%
[28]
  remaining activity at 1 µM: 71%
[29]
  remaining activity at 1 µM: 50%
[30]
  remaining activity at 1 µM: 93%
[31]
  remaining activity at 1 µM: 44%

Reference: US11542240B2, “STK19 inhibitors for treatment of cancer” (TRUSTEES OF BOSTON UNIVERSITY, priority 2018, dated 2023)
